From patent US9533985B2, “Sulfonamide derivative and medicinal use thereof” (EA Pharma Co., Ltd., priority 2012, dated 2017)

Legend:
Assay type in all cases: cell-based
α4β7 integrin [1] = target: T1, α4β7 integrin (Homo sapiens (Human), UniProt P13612+P26010); assay: MAdCAM-1/α4β7 integrin binding inhibitory activity evaluation test in the presence of serum (1); details: RPMI-8866 cells binding to mouse MAdCAM-1/Fc, human serum at final concentration of 50%; read-out: α4β7 with serum added, IC50
Summary of the method: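 Plates were coated with recombinant mouse MAdCAM-1/Fc (1 μg/mL, pH 9.6). Human RPMI-8866 B cells (α4β7-expressing) bound for 15–60 min at 30 °C in DMEM/HEPES/BSA with 4 mM MnCl2 and 50% human serum, with test substance present. Bound cells were quantified by LDH absorbance at 490 nm, run in duplicate, and IC50 was calculated relative to no-compound wells.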

α4β1 integrin = α4β1 integrin (Homo sapiens (Human), UniProt P05556+P13612); assay: VCAM-1/α4β1 integrin binding inhibitory activity evaluation test (Jurkat cell adhesion to VCAM-1/Fc); details: Jurkat cells binding to recombinant human VCAM-1/Fc
Summary of the method: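 Jurkat cells (5×10^5/well) added with compounds to plates coated with recombinant human VCAM-1/Fc (1 μg/mL coating), in DMEM binding buffer with 40 mM HEPES, 0.2% BSA and 4 mM MnCl2, 15-60 min at 30° C. Bound cells lysed and quantified by LDH absorbance at 490 nm; IC50 relative to compound-free wells, in duplicate.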

α4β7 integrin [2] = target: T1, α4β7 integrin; assay: MAdCAM-1/α4β7 integrin binding inhibitory activity evaluation test (RPMI-8866 cell adhesion to MAdCAM-1/Fc); details: for Selectivity: IC50 in VCAM-1/α4β1 test divided by IC50 in MAdCAM-1/α4β7 test; for IC50: RPMI-8866 cells binding to recombinant mouse MAdCAM-1/Fc, no serum
Summary of the method: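 Human RPMI-8866 cells (α4β7+) adhered for 15–60 min at 30 °C to plates coated with recombinant mouse MAdCAM-1/Fc, in DMEM binding buffer with 4 mM MnCl2 and test compound. Bound cells were quantified via LDH activity (A490) after lysis. IC50 is the 50% inhibition of binding relative to compound-free wells.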

α4β1 integrin, sequence (P13612 34-1032): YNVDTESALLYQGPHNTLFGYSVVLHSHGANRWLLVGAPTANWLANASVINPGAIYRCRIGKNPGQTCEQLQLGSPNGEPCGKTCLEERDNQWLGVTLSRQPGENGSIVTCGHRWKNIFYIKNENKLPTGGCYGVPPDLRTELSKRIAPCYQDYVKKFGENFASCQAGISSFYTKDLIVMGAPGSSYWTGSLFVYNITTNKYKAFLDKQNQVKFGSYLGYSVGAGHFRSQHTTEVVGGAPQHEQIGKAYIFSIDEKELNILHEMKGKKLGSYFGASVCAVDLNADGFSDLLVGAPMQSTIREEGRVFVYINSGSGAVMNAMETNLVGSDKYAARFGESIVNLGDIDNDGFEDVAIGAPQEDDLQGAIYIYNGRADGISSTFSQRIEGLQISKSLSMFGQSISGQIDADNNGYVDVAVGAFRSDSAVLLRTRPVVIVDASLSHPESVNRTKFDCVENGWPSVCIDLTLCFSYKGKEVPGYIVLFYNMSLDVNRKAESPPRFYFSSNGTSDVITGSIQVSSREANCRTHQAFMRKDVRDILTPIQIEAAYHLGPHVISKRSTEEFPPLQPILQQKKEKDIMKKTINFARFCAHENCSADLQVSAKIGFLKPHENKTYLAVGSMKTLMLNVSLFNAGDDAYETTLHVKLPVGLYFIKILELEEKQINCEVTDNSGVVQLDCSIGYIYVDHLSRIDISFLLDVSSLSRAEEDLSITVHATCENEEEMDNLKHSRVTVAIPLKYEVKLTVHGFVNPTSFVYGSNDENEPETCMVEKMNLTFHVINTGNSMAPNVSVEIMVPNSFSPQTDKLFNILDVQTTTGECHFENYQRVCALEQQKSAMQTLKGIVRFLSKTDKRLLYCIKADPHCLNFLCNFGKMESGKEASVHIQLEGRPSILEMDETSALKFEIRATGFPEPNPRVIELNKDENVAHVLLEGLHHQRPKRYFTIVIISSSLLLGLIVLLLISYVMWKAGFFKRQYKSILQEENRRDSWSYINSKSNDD
α4β1 integrin, sequence (P05556 21-798): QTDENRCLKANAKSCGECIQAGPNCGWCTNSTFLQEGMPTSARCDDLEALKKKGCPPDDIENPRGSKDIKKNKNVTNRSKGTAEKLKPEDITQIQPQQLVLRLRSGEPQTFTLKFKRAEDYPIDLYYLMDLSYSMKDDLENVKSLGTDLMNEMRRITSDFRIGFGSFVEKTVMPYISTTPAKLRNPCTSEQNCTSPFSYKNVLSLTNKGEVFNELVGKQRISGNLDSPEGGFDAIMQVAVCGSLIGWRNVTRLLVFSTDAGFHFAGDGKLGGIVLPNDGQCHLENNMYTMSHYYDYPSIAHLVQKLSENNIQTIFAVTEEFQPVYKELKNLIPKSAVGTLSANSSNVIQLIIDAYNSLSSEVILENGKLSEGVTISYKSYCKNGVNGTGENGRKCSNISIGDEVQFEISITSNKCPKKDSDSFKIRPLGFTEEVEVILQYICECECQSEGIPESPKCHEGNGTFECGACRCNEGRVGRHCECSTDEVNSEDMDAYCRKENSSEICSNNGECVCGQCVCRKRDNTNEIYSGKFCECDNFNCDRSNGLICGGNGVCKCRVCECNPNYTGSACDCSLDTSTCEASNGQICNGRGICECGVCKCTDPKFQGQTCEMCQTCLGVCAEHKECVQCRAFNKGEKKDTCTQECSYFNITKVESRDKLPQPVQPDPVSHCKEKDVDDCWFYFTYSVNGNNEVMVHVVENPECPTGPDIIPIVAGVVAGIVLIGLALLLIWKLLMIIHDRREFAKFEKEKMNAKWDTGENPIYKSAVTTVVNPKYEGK
T1 sequence (P13612 34-1032): as the sequence (P13612 34-1032) above
T1 sequence (P26010 20-798): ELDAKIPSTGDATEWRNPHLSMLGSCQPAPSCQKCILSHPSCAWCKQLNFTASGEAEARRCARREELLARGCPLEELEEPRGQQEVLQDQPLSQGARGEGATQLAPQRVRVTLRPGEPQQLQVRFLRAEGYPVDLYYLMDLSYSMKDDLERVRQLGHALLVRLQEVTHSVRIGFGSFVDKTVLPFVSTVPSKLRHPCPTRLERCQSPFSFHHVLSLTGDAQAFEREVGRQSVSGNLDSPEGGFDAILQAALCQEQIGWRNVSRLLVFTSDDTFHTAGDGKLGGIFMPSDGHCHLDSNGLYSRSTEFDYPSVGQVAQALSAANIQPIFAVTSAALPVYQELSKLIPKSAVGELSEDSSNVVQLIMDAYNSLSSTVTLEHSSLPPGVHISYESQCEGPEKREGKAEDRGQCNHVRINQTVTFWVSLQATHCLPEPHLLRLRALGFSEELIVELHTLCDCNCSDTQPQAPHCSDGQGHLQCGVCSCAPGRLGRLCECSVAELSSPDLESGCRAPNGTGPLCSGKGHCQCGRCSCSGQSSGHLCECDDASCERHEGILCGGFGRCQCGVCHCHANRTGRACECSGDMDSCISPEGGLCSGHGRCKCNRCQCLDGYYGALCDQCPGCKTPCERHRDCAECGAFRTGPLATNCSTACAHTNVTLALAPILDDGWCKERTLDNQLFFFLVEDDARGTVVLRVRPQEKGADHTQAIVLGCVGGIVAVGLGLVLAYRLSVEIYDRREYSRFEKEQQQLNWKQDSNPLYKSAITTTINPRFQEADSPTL

Row | IC50 (α4β7 integrin [1]) [nM] | IC50 (α4β1 integrin) [nM] | Selectivity (α4β7 integrin [2]) | IC50 (α4β7 integrin [2]) [nM] | Structure (SMILES)
1 | 1.3 | 31 | 150 | 0.21 | Cn1c(=O)n(-c2ccc(C[C@H](NC(=O)c3c(F)cc(NS(=O)(=O)c4ccc(C5=CCNCC5)cc4)cc3F)C(=O)O)cc2)c(=O)c2ccncc21 [Example 69, N-[2,6-Difluoro-4-({[4-(1,2,3,6-tetrahydropyridin-4-yl)phenyl]sulfonyl}amino)benzoyl]-4-(1-methyl-2,4-dioxo-1,4-dihydropyrido[3,4-d]pyrimidin-3(2H)-yl)-L-phenylalanine]
2 | 21 | 270 | 660 | 0.41 | Cc1cc(-c2ccc(S(=O)(=O)Nc3cc(F)c(C(=O)N[C@@H](Cc4ccc(-n5c(=O)c6ccncc6n(C)c5=O)cc4)C(=O)O)c(F)c3)cc2)cc(C)n1 [Example 70, N-[4-({[4-(2,6-Dimethylpyridin-4-yl)phenyl]sulfonyl}amino)-2,6-difluorobenzoyl]-4-(1-methyl-2,4-dioxo-1,4-dihydropyrido[3,4-d]pyrimidin-3(2H)-yl)-L-phenylalanine]
3 | 0.72 | 22 | 220 | 0.098 | Cn1c(=O)n(-c2ccc(C[C@H](NC(=O)c3c(F)cc(NS(=O)(=O)c4ccc(-n5ccnn5)cn4)cc3F)C(=O)O)cc2)c(=O)c2ccncc21 [Example 71, N-[2,6-Difluoro-4-({[5-(1H-1,2,3-triazol-1-yl)pyridin-2-yl]sulfonyl}amino)benzoyl]-4-(1-methyl-2,4-dioxo-1,4-dihydropyrido[3,4-d]pyrimidin-3(2H)-yl)-L-phenylalanine]
4 | 23 | 400 | 250 | 1.6 | Cn1ccc(=O)n(-c2ccc(C[C@H](NC(=O)c3c(F)cc(NS(=O)(=O)c4ccc(-n5nccn5)cn4)cc3F)C(=O)O)cc2)c1=O [Example 72, N-[2,6-Difluoro-4-({[5-(2H-1,2,3-triazol-2-yl)pyridin-2-yl]sulfonyl}amino)benzoyl]-4-(3-methyl-2,6-dioxo-3,6-dihydropyrimidin-1(2H)-yl)-L-phenylalanine]
5 | 6.5 | 410 | 430 | 0.95 | Cn1ccc(=O)n(-c2ccc(C[C@H](NC(=O)c3c(F)cc(NS(=O)(=O)c4ccc(-n5ccnn5)cn4)cc3F)C(=O)O)cc2)c1=O [Example 73, N-[2,6-Difluoro-4-({[5-(1H-1,2,3-triazol-1-yl)pyridin-2-yl]sulfonyl}amino)benzoyl]-4-(3-methyl-2,6-dioxo-3,6-dihydropyrimidin-1(2H)-yl)-L-phenylalanine]
6 | 11 | 520 | 1300 | 0.39 | Cc1cc(-c2ccc(S(=O)(=O)Nc3cc(F)c(C(=O)N[C@@H](Cc4ccc(-n5c(=O)c6c(ncn6C)n(C)c5=O)cc4)C(=O)O)c(F)c3)cc2)ccn1 [Example 74, N-[2,6-Difluoro-4-({[4-(2-methylpyridin-4-yl)phenyl]sulfonyl}amino)benzoyl]-4-(3,7-dimethyl-2,6-dioxo-2,3,6,7-tetrahydro-1H-purin-1-yl)-L-phenylalanine]
7 | 4.2 | 310 | 820 | 0.38 | Cn1cnc2c1c(=O)n(-c1ccc(C[C@H](NC(=O)c3c(F)cc(NS(=O)(=O)c4ccc(-c5ccncc5)cc4)cc3F)C(=O)O)cc1)c(=O)n2C [Example 75, N-(2,6-Difluoro-4-{[(4-pyridin-4-yl-phenyl)sulfonyl]amino}benzoyl)-4-(3,7-dimethyl-2,6-dioxo-2,3,6,7-tetrahydro-1H-purin-1-yl)-L-phenylalanine]
8 | 22 | 910 | 410 | 2.2 | Cn1cnc2c1c(=O)n(-c1ccc(C[C@H](NC(=O)c3c(F)cc(NS(=O)(=O)c4ccc(-n5cccc5)cc4)cc3F)C(=O)O)cc1)c(=O)n2C [Example 76, N-[2,6-Difluoro-4-({[4-(1H-pyrrol-1-yl)phenyl]sulfonyl}amino)benzoyl]-4-(3,7-dimethyl-2,6-dioxo-2,3,6,7-tetrahydro-1H-purin-1-yl)-L-phenylalanine]
